The record followed here is patent US7371207B2 (Wyeth, priority 2002, dated 2008).

“Also recorded” adds a separate entry of the source.

Data set [1] deals with gene expression in the pituitary. Nature of the data set: GeneChip microarray survey of E2 regulated gene expression, pituitary. The format is in vivo, mouse. From the text: (§1) One week later, the animals were ovariectomized.
For data set [2], the system named is gene expression in the uterus. Nature of the data set: Real-time PCR of uterine gene expression in ovariectomized WT mice. The format is in vivo, mouse. To be noted: various doses s.c. six weeks, FIG. 5.
Excerpt: as §1
In general terms: In qPCR the cycle at which signal appears reflects the starting amount.

The subject of data set [3] is gene expression in the kidney. Nature of the data set: In situ hybridization of kidney, ovariectomized mice. Format: in vivo, mouse. The conditions noted are these: 20 μg/kg/day E2 six weeks, FIG. 3.
Excerpt: No signal was detected with the corresponding sense probes.
Generally, in situ hybridization comprises the following major steps: (1) fixation of tissue or biological structure to be analyzed; (2) prehybridization treatment of the biological structure to increase accessibility of target nucleic acid, and to reduce nonspecific binding; (3) hybridization of the mixture of nucleic acids to the nucleic acid in the biological structure or tissue; (4) post-hybridization washes to remove nucleic acid fragments not bound in the hybridization, and (5) detection of the hybridized nucleic acid fragments. The probes used in such applications are typically labeled, for example, with radioisotopes or fluorescent reporters. Preferred probes are sufficiently long, for example, from about 50, 100, or 200 nucleotides to about 1000 or more nucleotides, to enable specific hybridization with the target nucleic acid(s) under stringent conditions.
as §1

Data set [4] concerns gene expression in the kidney of mice expressing ΔAF1-ERα. The data set is described as follows: Real-time PCR of kidney gene expression in ERαERβKO or ERαKO mice expressing ΔAF1-ERα.
Experimental: Kidney gene expression values were determined by real-time PCR for each individual animal and normalized for GAPDH expression. The mean expression level in vehicle-treated WT mice was defined as 1 for each gene. *p<0.01 for comparison to vehicle treated animals.
One week later, the animals were ovariectomized. Commencing the day after ovariectomy, each animal received a daily subcutaneous treatment with vehicle (50% DMSO, 50% phosphate buffered saline) or vehicle containing treatments for six weeks. Each group consisted of six or seven animals. Approximately 2 hours following the final treatment, the animals were euthanized with selected tissues frozen in liquid nitrogen for RNA analysis or on dry ice for histology.
Where [5] appears, read: 20 μg/kg/day E2 s.c. six weeks, WT and ERβKO ovariectomized mice, number of genes.
[6] abbreviates: 10 μg/kg/day E2 or 5 mg/kg/day tamoxifen, 6 weeks, FIG. 8.

Take `C[C@]12CC[C@@H]3c4ccc(O)cc4CC[C@H]3[C@@H]1CC[C@@H]2O` [E2, 17β-estradiol]: in data set [1] (setting [5]), the “ERα pattern regulations in pituitary, number of inductions” value was 56 and the “ERα pattern regulations in pituitary, number of repressions” value is recorded as 30. In addition, the “Kallikrein-9 expression in pituitary” value in data set [1] (mouse, in vivo) was “Induced”. Besides, in data set [2], the “ED50 for BCAT1 induction in the uterus” value came to 0.2 µg/kg/day and the “ED50 for c-fos induction in the uterus” value came to 2.7 µg/kg/day. Besides, in data set [3], the “localization of induction of CYP7B1, TF, STAT5A and GADD45G in mouse kidney” value is reported as “induction of gene expression occurred in the juxtamedullary region of the kidney”. The “CYP7B1 expression in kidney, mice expressing ΔAF1-ERα (ERαERβKO or ERαKO)” value in data set [4] (10 μg/kg/day E2, 6 weeks, FIG. 8) is “increased CYP7B1 expression”. In addition, in data set [4] (setting [6]), the “BCAT1 expression in kidney, ERαERβKO mice” value is “stimulated BCAT1 expression” and the “TF expression in kidney, ERαERβKO mice (express only ΔAF1-ERα)” value is reported as “Neither compound could induce TF expression”. The “mechanism of induction of BCAT1 in kidney (ERα AF1 or AF2)” value in data set [4] (WT versus ΔAF1-ERα mice, E2 versus tamoxifen) was “either AF1 or AF2 mechanisms; also recorded: both AF1 and AF2 mechanisms”.
